Data published in patent US7244850B2, “Benzimidazole derivatives, compositions containing them, preparation thereof and uses thereof” (AstraZeneca AB, priority 2003, dated 2007).

How the values were obtained:
[1] = biological target: T1, human CB2 receptor (Homo sapiens, UniProt P34972); assay: hCB2 receptor binding (3H-CP55,940 displacement)
T1 construct: purchased BioSignal
Procedure: (§1) Human CB1 receptor from Receptor Biology (hCB1) or human CB2 receptor from BioSignal (hCB2) membranes are thawed at 37° C., passed 3 times through a 25-gauge blunt-end needle, diluted in the cannabinoid binding buffer (50 mM Tris, 2.5 mM EDTA, 5 mM MgCl2, and 0.5 mg/mL BSA fatty acid free, pH 7.4) and aliquots containing the appropriate amount of protein are distributed in 96-well plates. The IC50 of the compounds of the invention at hCB1 and hCB2 are evaluated from 10-point dose-response curves done with ^3H-CP55,940 at 20000 to 25000 dpm per well (0.17-0.21 nM) in a final volume of 300 μl. The total and non-specific binding are determined in the absence and presence of 0.2 μM of HU210 respectively. The plates are vortexed and incubated for 60 minutes at room temperature, filtered through Unifilters GF/B (presoaked in 0.1% polyethyleneimine) with the Tomtec or Packard harvester using 3 mL of wash buffer (50 mM Tris, 5 mM MgCl2, 0.5 mg BSA pH 7.0). The filters are dried for 1 hour at 55° C. The radioactivity (cpm) is counted in a TopCount (Packard) after adding 65 μl/well of MS-20 scintillation liquid.
(§2) Based on the above assays, the dissociation constant (Ki) for a particular compound of the invention towards a particular receptor is determined using the following equation: Ki=IC50/(1+[rad]/Kd), […]

[2] = biological target: T2, human CB1 receptor (Homo sapiens, UniProt P21554); assay: hCB1 receptor binding (3H-CP55,940 displacement); conditions: hCB1 membranes, 3H-CP55,940 radioligand; Ki=IC50/(1+[rad]/Kd); read-out: Ki towards human CB1 receptors
T2 construct: purchased Receptor Biology
Procedure: as §1, §2

T1 sequence (P34972 whole entry): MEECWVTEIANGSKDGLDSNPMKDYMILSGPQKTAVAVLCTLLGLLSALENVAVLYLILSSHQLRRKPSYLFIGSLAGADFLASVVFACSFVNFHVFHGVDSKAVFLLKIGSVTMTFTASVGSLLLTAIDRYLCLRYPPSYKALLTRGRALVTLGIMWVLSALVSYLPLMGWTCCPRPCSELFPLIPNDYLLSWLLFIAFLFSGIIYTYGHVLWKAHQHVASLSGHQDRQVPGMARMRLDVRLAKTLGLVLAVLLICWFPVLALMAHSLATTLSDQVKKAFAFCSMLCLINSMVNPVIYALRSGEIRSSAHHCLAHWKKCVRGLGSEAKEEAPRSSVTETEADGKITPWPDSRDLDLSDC
T2 sequence (P21554 whole entry): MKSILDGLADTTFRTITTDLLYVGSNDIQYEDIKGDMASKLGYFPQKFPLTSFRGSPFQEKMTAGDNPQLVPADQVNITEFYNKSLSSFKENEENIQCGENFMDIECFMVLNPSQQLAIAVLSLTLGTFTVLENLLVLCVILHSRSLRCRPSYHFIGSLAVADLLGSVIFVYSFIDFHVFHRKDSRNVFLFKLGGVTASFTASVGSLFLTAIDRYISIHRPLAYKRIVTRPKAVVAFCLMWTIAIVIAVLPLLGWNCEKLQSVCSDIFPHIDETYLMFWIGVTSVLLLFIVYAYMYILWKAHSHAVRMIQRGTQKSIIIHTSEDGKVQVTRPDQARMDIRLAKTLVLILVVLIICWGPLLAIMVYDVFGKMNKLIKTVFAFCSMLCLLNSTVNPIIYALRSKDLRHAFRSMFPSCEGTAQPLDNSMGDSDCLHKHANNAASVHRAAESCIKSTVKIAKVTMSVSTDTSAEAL

## CC(C)(C)c1nc2cc(C(=O)N(CC(F)(F)F)CC(F)(F)F)ccc2n1CC1CCCCC1 [compound 1, 2-tert-Butyl-1-(cyclohexylmethyl)-N,N-bis(2,2,2-trifluoroethyl)1H-benzimidazole-5-carboxamide]
[1]
  Ki: ~33 nM
[2]
  Ki: ~34 nM
